Consider 10 compounds from US20220267754A1, “VECTOR-BASED MUTAGENESIS SYSTEM” (priority 2015, published 2022).

Structures are written as SMILES.

The test system of assay [1] is E. coli MG1655 ΔrecA::apra. Format: cell-based.
In assay [2] the test system is E. coli. To be noted: tabulated from Antimicrobial Index Knowledgebase; cited from earlier work.

For `Nc1ncc2[nH]cnc2n1` [2AP, 2-aminopurine], in assay [1], the “fraction of cells resistant, CRB” value is recorded as 1.17E−07; the “fraction of cells resistant, CTX” value came to 2.80E−06; the “fraction of cells resistant, FOS” value was 4.83E−04; the “fraction of cells resistant, KAN” value was 1.53E−03. In assay [1], the “fraction of cells resistant, MIX” value is reported as 2.03E−05; the “fraction of cells resistant, RIF” value came out at 1.03E−05; the “fraction of cells resistant, SPC” value stood at 2.50E−07; the “fraction of cells resistant, STR” value was 3.17E−07. For the same compound, the “fraction of cells resistant, TET” value in assay [1] is on record as 0.00E+00.
On to `CCOS(C)(=O)=O` [EMS, ethyl methanesulfonate], for which, in assay [1], the “fraction of cells resistant, CRB” value was 0.00E+00; the “fraction of cells resistant, CTX” value was 1.67E−07; the “fraction of cells resistant, FOS” value is on record as 3.75E−04; the “fraction of cells resistant, KAN” value was 8.17E−04. For the same compound, in assay [1], the “fraction of cells resistant, MIX” value came to 1.10E−04; the “fraction of cells resistant, RIF” value worked out at 6.68E−05; the “fraction of cells resistant, SPC” value is 0.00E+00; the “fraction of cells resistant, STR” value worked out at 1.33E−06. In addition, the “fraction of cells resistant, TET” value in assay [1] is listed as 0.00E+00.
Turning to `CC1(C)S[C@@H]2[C@H](NC(=O)C(C(=O)O)c3ccccc3)C(=O)N2[C@H]1C(=O)O` (some centres unmarked) [carbenicillin], the MIC – broadly, the smallest concentration in the dilution series that meets the test's criterion for growth inhibition – in assay [2] was 2 to 25 µg/mL.
`CO/N=C(\C(=O)N[C@@H]1C(=O)N2C(C(=O)O)=C(COC(C)=O)CS[C@H]12)c1csc(N)n1` [cefotaxime]: the MIC in assay [2] was 0.016 to 0.25 µg/mL.
In the case of `C[C@@H]1O[C@@H]1P(=O)(O)O` [fosfomycin], in assay [2], the MIC is 0.125 to 8 µg/mL.
`Cc1ncc([N+](=O)[O-])n1CCO` [metronidazole]: the minimal inhibitory concentration (MIC) in assay [2] was 8 to 32 µg/mL.
As for `CCn1cc(C(=O)O)c(=O)c2cc(F)c(N3CCNCC3)cc21` [norfloxacin], the MIC in assay [2] is 0.016 to 0.125 µg/mL.
Regarding `CO[C@H]1/C=C/O[C@@]2(C)Oc3c(C)c(O)c4c(O)c(c(/C=N/N5CCN(C)CC5)c(O)c4c3C2=O)NC(=O)/C(C)=C\C=C\[C@H](C)[C@H](O)[C@@H](C)[C@@H](O)[C@@H](C)[C@H](OC(C)=O)[C@@H]1C` [rifampin], the MIC in assay [2] is 0.5 to 16 µg/mL.
Consider `CN[C@@H]1[C@H](O)[C@H](NC)[C@H]2O[C@@]3(O)C(=O)C[C@@H](C)O[C@H]3O[C@@H]2[C@H]1O` [spectinomycin], for which the MIC in assay [2] was 8 to 64 µg/mL.
Consider `[H]/N=C(/N)N[C@H]1[C@H](O)[C@@H](O)[C@H](O[C@@H]2O[C@@H](C)[C@](O)(C=O)[C@H]2O[C@@H]2O[C@@H](CO)[C@H](O)[C@@H](O)[C@@H]2NC)[C@@H](N/C(N)=N\[H])[C@@H]1O` [streptomycin], for which the MIC in assay [2] is 1 to 16 µg/mL.
